Assay results reported in patent US5760036A, “Aminediol protease inhibitors” (E. R. Squibb & Sons, Inc., priority 1995, dated 1998).
Like-named read-outs stand apart in the source and are kept apart here.

Experiments:
HIV protease = biological target: T1, HIV protease (Human immunodeficiency virus type 1 group M subtype B, UniProt P04585); assay: HIV Protease Assay; format: biochemical
T1 construct: and purified protease
Method in brief: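 Purified protease cleaved 450 μM octapeptide substrate in 50 mM sodium acetate pH 5.5 with 100 μg/ml BSA for 30 minutes at 37° C; product analyzed by reverse-phase HPLC at UV220 after H3PO4 quench. Inhibitors tested at final 10 μM with 4% DMSO.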

[1] = test system: RF strain of HIV (CEM-SS cells); assay: Cell Culture Anti-HIV Activity (cell viability, formazan); format: cell-based; details: Human immunodeficiency virus 1, CEM-SS, 144 h
Method in brief: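 CEM-SS cells (5000/well) infected with HIV RF at MOI 0.04, exposed to half-log serial compound dilutions, incubated 6 days at 37° C. Viability read by tetrazolium reduction to formazan, absorbance 450 nm. IC50 is the concentration raising formazan in infected cells to 50% of uninfected, drug-free cells.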

[2] = pH 5.5, 10 μM inhibitor, 4% DMSO, 450 μM substrate, pH 5.5, 30 minutes at 37° C., RP-HPLC, read-out: HIV Protease % Inhibition at 10 μM
[3] = CEM-SS cells, RF strain of HIV, multiplicity of infection 0.04, 6 days at 37° C., 450 nm, read-out: HIV (CEM Cells) IC50

| SMILES | inhibition at 10 µM (HIV protease; [2]) [%] | inhibition at 10 µM (HIV protease; pH 5.5, read-out: HIV Protease % Inhibition at 10 μM, 10 μM inhibitor, 4% DMSO, 450 μM substrate, pH 5.5, 30 minutes at 37° C., RP-HPLC) [%] | IC50 ([1]; read-out: HIV (CEM Cells) IC50 (μM)) [µM] | IC50 [1, 3] [µM] |
| --- | --- | --- | --- | --- |
| CC(C)(C)OC(=O)N[C@@H](Cc1ccccc1)[C@H](O)CN(C[C@@H](O)[C@H](Cc1ccccc1)NC(=O)OC(C)(C)CO)C(=O)OCC[Si](C)(C)C [Compound 164, [R-(R*,S*)]-[[[(Trimethylsilyl)-ethoxy]carbonyl]iminobis[2-hydroxy-1-(phenylmethyl)-3,1-propanediyl]1biscarbamic acid, 1,1-di-methylethyl 2-hydroxy-1,1-dimethylethyl ester] | – | 99 | 0.04 | – |
| CC(C)(C)OC(=O)N1Cc2ccccc2CC1C(O)CNCC(O)C1Cc2ccccc2CN1C(=O)OC(C)(C)C (stereo not drawn) [Compound 11, [R-(R*,R*)]-3,3'[Iminobis(1-hydroxy-2,1-ethanediyl)]-bis[2(1H)-isoquinolinecarboxylic acid], bis(1,1-dimethylethyl) ester] | 0 | – | – | > 6 |
| CC(C)(C)OC(=O)N[C@@H](Cc1ccccc1)[C@H](O)CNC[C@@H](O)[C@H](Cc1ccc(OCc2ccccc2)cc1)NC(=O)OCc1ccccc1 [Compound 17, [1S-[1R*,2S*(2S*,3R*)]]-[3-[[3-[[(1,1-Dimethylethoxy)carbonyl]amino]2-hydroxy-4-phenylbutyl]amino]-2-hydroxy-1-[[4-(phenylmethoxy)phenyl]methyl]propyl]carbamic acid, phenylmethyl ester] | 84 | – | – | > 1.5 |

Second part, led by results:

| inhibition at 10 µM (HIV protease; [2]) [%] | SMILES | inhibition at 10 µM (HIV protease; pH 5.5, read-out: HIV Protease % Inhibition at 10 μM, 10 μM inhibitor, 4% DMSO, 450 μM substrate, pH 5.5, 30 minutes at 37° C., RP-HPLC) [%] | IC50 ([1]; read-out: HIV (CEM Cells) IC50 (μM)) [µM] | IC50 [1, 3] [µM] |
| --- | --- | --- | --- | --- |
| 99 | CC(C)[C@H](NC(=O)c1nc2ccccc2[nH]1)C(=O)N[C@@H](Cc1ccccc1)[C@H](O)CNC[C@@H](O)[C@H](Cc1ccccc1)NC(=O)OC(C)(C)C [Compound 101, [S-[1R*,2S*(2S*,3R*)]-N-[3-[[3-[[(1,1-Dimethylethoxy)carbonyl]amino]-2-hydroxy-4-phenylbutyl]amino]-2-hydroxy-1-(phenylmethyl)propyl]-N^2-[(1H-benzimidazol-2-yl)-carbonyl]-L-valinamide]] | – | – | 0.14 |
| 99 | CC(C)(C)OC(=O)N[C@@H](Cc1ccccc1)[C@H](O)CNC[C@@H](O)[C@H](Cc1ccccc1)NC(=O)[C@@H](NC(=O)OCc1nc(-c2ccccc2)co1)C(C)(C)C [Compound 345, [S-(1R*,2S*(2S*,3R*)]]-[2,2-Dimethyl-1-[[[3-[[3-[[1,1-dimethylethoxy)-carbonyl]amino]-2-hydroxy-4-phenylbutyl]amino]-2-hydroxy-1-(phenylmethyl)propyl]amino]-carbonyl]propyl]carbamic acid, (4-phenyl-2-oxazolyl)methyl ester] | – | – | 0.33 |
